Source: patent publication US20080131920A1, “Ion flux in biological processes, and methods related thereto” (priority 2005, published 2008)

What was measured:
KCNK1 = KCNK1 expression in the regeneration bud; set-up: species or system Xenopus laevis; settings: in vivo
Excerpt: We then sought to functionally link V-ATPase activity to gene expression in the regeneration bud. Existing markers include Notch pathway genes^2. […] Because of this, and because the V-ATPase is expressed so soon following amputation, we utilized an earlier marker that is normally expressed by 12 hpa: the K^+ channel KCNK1 (FIG. 14E,E′). In larvae in which V-ATPase activity was abrogated by concanamycin or a function-blocking anti-V-ATPase antibody, KCNK1 expression was absent (N=13, FIG. 14F,F′-G,G′). Thus, V-ATPase is upstream of some gene expression in the regeneration bud, including other ion transporters also specifically expressed during early stages of regeneration.
Larvae were fixed in MEMFA (Sive et al., 2000) and dehydrated in methanol. In situ hybridization was carried out according to standard protocols (Harland, 1991, Xenopus laevis: Practical uses in cell and molecular biology 36: 685-695). The ion transporter constructs used to generate probes for in situ hybridization (ISH) experiments were: Kcnk1 (TWIK-1, BC042262, Open Biosystems), V-ATPase 16 kDa subunit (BE025959, RZPD). Plasmids were used to generate anti-sense riboprobes by in vitro transcription. […] Expression indicated represents consistent consensus patterns obtained from analysis of at least 15 larvae in all experiments. […]

[1] = test system: Sonic hedgehog (Shh), Nodal; assay: Sidedness of Shh and Nodal expression in chick embryos (in ovo culture, in situ hybridization); settings: in vivo
Excerpt: We examined the effect of inhibiting H^+-V-ATPase activity on the expression of the early left-sided marker Sonic hedgehog (Shh). Inhibition of H^+-V-ATPase activity following treatment with concanamycin or DCCD specifically randomized the expression of Shh, as well as that of and the downstream marker Nodal. Compared to controls, in which these two markers are always left-sided, concanamycin induced aberrant sidedness of Shh expression in 67% and Nodal in 24% of embryos. Thus, as in Xenopus, H^+-V-ATPase is upstream of the known asymmetric gene cascade, and is required for normal LR patterning in chicks.
To perform a pharmacological screen on chick embryos with minimal disturbance to normal morphogenesis, we optimized a chicken in ovo culture system. A small hole was made on the top of each egg (prior to incubation), and 5 ml of light albumin was removed. […]. Eggs were securely wrapped with Scotch tape, incubated at 37.5° C. to the desired stages, then fixed for analysis of laterality markers by in situ hybridization.
Whole mount in situ hybridization (WISH) on Xenopus was performed according to standard methods. DNA used to transcribe in situ hybridization probes were XNr-1 (Lohr et al., 1998, Developmental Genetics 23: 194-202; Lowe et al., 1996, Nature 381: 158-161); cShh (Levin et al., 1995, Cell 82: 803-814); cNodal (Levin et al., 1995, Cell 82: 803-814).

axons of the tail = assay: Axonal patterning in regenerating tails (acetylated α-tubulin immunohistochemistry); set-up: species or system Xenopus laevis; settings: in vivo
Excerpt: Finally, to characterize downstream morphogenetic consequences of V-ATPase abrogation, we traced axonal paths during regeneration using immunohistochemistry with an acetylated α-tubulin antibody. In normally regenerating tails, axons appear increased in number (relative to the uncut portion of tail) and they extend into the bud in bundles parallel to the main anterior-posterior axis of the tail (FIG. 14H; green arrows indicate normal axon patterning, while black arrows indicate abnormal axon number and/or location). […] Moreover, in normal refractory tails, there is no apparent increase in the number of axons, and those that are present terminate well anterior of the tail tip (FIG. 14K). […]
Axon and muscle marker detection was performed using fluorescent secondary antibodies. […] Fluorescence images were collected on a Leica TCS SPZ confocal imaging system; λex=543. […] Background autofluorescence was removed by segmentation of the original fluorescence images. The brightest pixels could readily be selected such that the selection best represented the pattern of axons. […]

activated caspase-3 = assay: Activated caspase-3 localization (apoptosis) in regenerating tails; format: in vivo, Xenopus laevis; settings: V-ATPase-inhibited larvae
Protocol: Further experiments were done in the Xenopus system based on the results of the pharmacological screen (see Example 6). […] The V-ATPase (Nishi, 2002, Nature Reviews Molecular Cell Biology 3: 94-103) generates strong pH and voltage gradients at the expense of ATP, when expressed in vesicular or cell plasma membranes.
Xenopus larvae were fixed overnight in MEMFA, heated for 2 hrs at 65° C. in 50% formamide (to inactivate endogenous alkaline phosphatases; this procedure was not done when using fluorescent secondary antibodies), permeabilized in PBTr+0.1% Triton X100 for 30 min, and processed for immunohistochemistry using alkaline phosphatase secondary antibody (Levin, 2004, Journal of Biochemical and Biophysical Methods 58: 85-96) until signal was optimal and background minimal (usually 12 hrs). […] Anti-KCNK1 (a generous gift of Dr. S. A. Goldstein and D. Bockenhauer) was used at 1:500. The 12-101 muscle marker (Gurdon et al., 1985, Cell 41: 913-22; Kintner and Brockes, 1984, Nature 308: 67-9) was used at 1:1 dilution; this monoclonal antibody developed by Jeremy P. Brockes was obtained from the Developmental Studies Hybridoma Bank developed under the auspices of the NICHD and maintained by The University of Iowa, Department of Biological Sciences, Iowa City, Iowa 52242.

## C/C=C/[C@H]1O[C@@](O)([C@@H](C)[C@H](O)[C@H](C)[C@H]2OC(=O)/C(OC)=C/C(C)=C/[C@@H](C)[C@@H](O)[C@@H](CC)[C@@H](O)[C@H](C)C/C(C)=C/C=C/[C@@H]2OC)C[C@@H](O)[C@@H]1C [concanamycin]
KCNK1
  KCNK1 expression in the regeneration bud: absent
[1]
  aberrant sidedness of Nodal expression, % of embryos: 24%
  aberrant sidedness of Shh expression, % of embryos: 67%
  expression of Shh and Nodal (sidedness): randomized
Axons of the tail
  axon patterning in V-ATPase-inhibited tails: axon patterning is abnormal
Activated caspase-3
  degree of apoptosis vs control: no significant difference
